The results in this text go back to BindingDB's records for doi:10.1021/acs.jmedchem.9b00963 (Hong Kong Polytechnic University, 2019).

pEC50: −log10 of the molar value.

The nature of series [1]: Inhibition of P-gp (unknown origin) expressed in human LCC6MDR cells assessed as reversal of paclitaxel resistance after 5 days by MTS/PMS assay.
Series [2] in a line: Inhibition of BCRP (unknown origin) transfected in HEK293/R2 cells assessed as reversal of topotecan resistance after 5 days by MTS/PMS assay.
A short description of series [3]: Inhibition of BCRP in human MCF7/MX100 cells assessed as reversal of topotecan resistance after 5 days by MTS/PMS assay.

As to `O=c1cc(-c2ccccc2)oc2cc(OCCOCc3cn(CCOCCOCCOc4ccc(-c5oc6ccccc6c(=O)c5OCc5ccccc5)cc4)nn3)ccc12`, the results for the pEC50 in series [1], in series [2] and in series [3] were 6.42, 7.42 and 7.60, respectively.
The like results for `O=c1cc(-c2ccccc2)oc2cc(OCCN(Cc3ccccc3)Cc3cn(CCOCCOc4ccc(-c5cc(=O)c6cc(F)ccc6o5)cc4)nn3)ccc12` were, in that order, 6.55, 7.32 and 7.27.
In the same order, the values of `O=c1cc(-c2ccc(OCCOCCn3cc(CCCCOc4ccc5c(=O)cc(-c6ccccc6)oc5c4)nn3)cc2)oc2ccccc12` are 6.49, 7.28 and 7.60.
In the same order, the values of `Cc1ccc2oc(-c3ccc(OCCCCc4cn(CCOCCOc5ccc(-c6cc(=O)c7ccccc7o6)cc5)nn4)cc3)cc(=O)c2c1` are 6.43, 7.17 and 7.48.
With `O=c1cc(-c2ccc(OCCOCCn3cc(CN(CCOc4ccc5c(=O)cc(-c6ccccc6)oc5c4)Cc4ccccc4)nn3)cc2)oc2ccccc12`, the pEC50 (in general, −log10 of the EC50, conventionally taken in molar units) in series [1] is 6.20; in series [2], 7.07; in series [3], 6.69.
The like results for `O=c1cc(-c2ccc(OCCOCCOCCn3cc(CN(CCOc4ccc5c(=O)cc(-c6ccccc6)oc5c4)Cc4ccccc4)nn3)cc2)oc2ccccc12` were, in that order, 6.56, 7.43 and 7.77.
In the same order, the values of `O=c1cc(-c2ccc(OCCOCCn3cc(CCCOc4ccc5c(=O)cc(-c6ccccc6)oc5c4)nn3)cc2)oc2ccccc12` are 6.52, 7.17 and 7.52.
The like results for `O=c1cc(-c2ccccc2)oc2cc(OCCCc3cn(CCOCCOc4ccc5c(=O)cc(-c6ccccc6)oc5c4)nn3)ccc12` were, in that order, 6.31, 7.38 and 7.66.
Turning to `O=c1cc(-c2ccccc2)oc2cc(OCCCc3cn(CCOCCOCCOc4ccc(-c5cc(=O)c6cc(F)ccc6o5)cc4)nn3)ccc12`, the pEC50 in series [1] is 6.48; in series [2] it was 7.42; in series [3] it was 7.01.
The like results for `Cc1ccc2oc(-c3ccc(OCCCCc4cn(CCOCCOCCOc5ccc(-c6cc(=O)c7cc(C)ccc7o6)cc5)nn4)cc3)cc(=O)c2c1` were, in that order, 6.28, 7.27 and 6.64.
As to `Cc1ccc2oc(-c3ccc(OCCCCc4cn(CCOCCOCCOc5ccc(-c6cc(=O)c7cc(F)ccc7o6)cc5)nn4)cc3)cc(=O)c2c1`, the pEC50 in series [1] was 6.13; in series [2], 7.24; in series [3], 6.49.
The like results for `Cc1ccc2oc(-c3ccc(OCCCCc4cn(CCN(CCOc5ccc(-c6cc(=O)c7ccccc7o6)cc5)Cc5ccccc5)nn4)cc3)cc(=O)c2c1` were, in that order, 6.17, 7.15 and 7.41.
In the same order, the values of `COC(=O)c1cccc(COc2c(-c3ccc(OCCOCCn4cc(CN5CCCN(Cc6cn(CCOCCOc7ccc(-c8oc9ccccc9c(=O)c8OCc8cccc(C(=O)OC)c8)cc7)nn6)CC5)nn4)cc3)oc3ccccc3c2=O)c1` are 6.24, 6.97 and 7.26.
As for `COC(=O)c1cccc(COc2c(-c3ccc(OCCOCCOCCn4cc(CN(Cc5cn(CCOCCOCCOc6ccc(-c7oc8ccccc8c(=O)c7OCc7cccc(C(=O)OC)c7)cc6)nn5)c5ccccc5)nn4)cc3)oc3ccccc3c2=O)c1`, the values for the pEC50 in series [1], in series [2] and in series [3] were under 6.00, 8.24 and 8.41, respectively.
The like results for `O=c1cc(-c2ccccc2)oc2cc(OCCCCc3cn(CCOCCOc4ccc5c(=O)cc(-c6ccccc6)oc5c4)nn3)ccc12` were, in that order, 6.44, 7.47 and 7.41.
Take `Cc1ccc2oc(-c3ccc(OCCCCc4cn(CCOc5ccc6c(=O)cc(-c7ccccc7)oc6c5)nn4)cc3)cc(=O)c2c1`: the figures for the pEC50 in series [1], in series [2] and in series [3] were 6.69, 7.22 and 6.65, respectively.
In the same order, the values of `O=c1cc(-c2ccccc2)oc2cc(OCCOCCOCCn3cc(CN(Cc4ccccc4)Cc4cn(CCOCCOCCOc5ccc6c(=O)cc(-c7ccccc7)oc6c5)nn4)nn3)ccc12` are under 6.00, 7.08 and 6.60.
For `O=c1cc(-c2ccccc2)oc2cc(OCCOCCOCCn3cc(CN(CCOc4ccc5c(=O)cc(-c6ccccc6)oc5c4)Cc4ccccc4)nn3)ccc12`, the pEC50 is 6.39 in series [1], 7.27 in series [2] and 7.24 in series [3].
In the same order, the values of `Cc1ccc2oc(-c3ccc(OCCOCCOCCn4cc(CN(CCOc5ccc6c(=O)cc(-c7ccccc7)oc6c5)Cc5ccccc5)nn4)cc3)cc(=O)c2c1` are 6.68, 7.26 and 7.80.
In the same order, the values of `COC(=O)c1cccc(COc2c(-c3ccc(OCCOCCn4cc(-c5ccc(-c6cn(CCOCCOc7ccc(-c8oc9ccccc9c(=O)c8OCc8cccc(C(=O)OC)c8)cc7)nn6)cc5)nn4)cc3)oc3ccccc3c2=O)c1` are under 6.00, 7.85 and 7.57.
In the same order, the values of `COC(=O)c1cccc(COc2c(-c3ccc(OCCOCCn4cc(CN(C)CCN(C)Cc5cn(CCOCCOc6ccc(-c7oc8ccccc8c(=O)c7OCc7cccc(C(=O)OC)c7)cc6)nn5)nn4)cc3)oc3ccccc3c2=O)c1` are under 6.00, 6.88 and 7.08.
With `COC(=O)c1cccc(COc2c(-c3ccc(OCCOCCn4cc(CCCOc5ccc6c(=O)cc(-c7ccccc7)oc6c5)nn4)cc3)oc3ccccc3c2=O)c1`, the values for the pEC50 in series [1], in series [2] and in series [3] were 6.21, 8.14 and 7.62, respectively.
Turning to `O=c1cc(-c2ccccc2)oc2cc(OCCCc3cn(CCOCCOCCOc4ccc5c(=O)cc(-c6ccccc6)oc5c4)nn3)ccc12`, the pEC50 is 6.29 in series [1], 7.24 in series [2] and 6.75 in series [3].
The like results for `O=c1cc(-c2ccc(OCCCc3cn(CCOCCOCCOc4ccc(-c5oc6ccccc6c(=O)c5OCc5ccccc5)cc4)nn3)cc2)oc2cc(F)ccc12` were, in that order, 6.46, 7.60 and 7.33.
In the same order, the values of `COC(=O)c1cccc(COc2c(-c3ccc(OCCOCCn4cc(CCCOc5ccc(-c6cc(=O)c7ccc(F)cc7o6)cc5)nn4)cc3)oc3ccccc3c2=O)c1` are 6.32, 8.02 and 8.19.
The like results for `Cc1ccc2oc(-c3ccc(OCCCCc4cn(CCOCCOc5ccc(-c6oc7ccccc7c(=O)c6OCc6ccccc6)cc5)nn4)cc3)cc(=O)c2c1` were, in that order, 6.22, 7.48 and 7.62.
Consider `O=c1cc(-c2ccc(OCCOCCOCCn3cc(CCCCOc4ccc5c(=O)cc(-c6ccccc6)oc5c4)nn3)cc2)oc2ccccc12`, for which the pEC50 in series [1] is 6.44; in series [2], 7.33; in series [3] it was 7.74.
The like results for `O=c1cc(-c2ccccc2)oc2cc(OCCCCc3cn(CCOCCOCCOc4ccc(-c5cc(=O)c6cc(F)ccc6o5)cc4)nn3)ccc12` were, in that order, 6.49, 7.36 and 7.51.
The like results for `O=c1cc(-c2ccccc2)oc2cc(OCCCCc3cn(CCOCCOc4ccc(-c5cc(=O)c6cc(F)ccc6o5)cc4)nn3)ccc12` were, in that order, 6.58, 7.37 and 7.74.
The like results for `O=c1cc(-c2ccccc2)oc2cc(OCCCCc3cn(CCOCCOCCOc4ccc5c(=O)cc(-c6ccccc6)oc5c4)nn3)ccc12` were, in that order, 6.54, 7.33 and 7.03.
As to `O=c1cc(-c2ccccc2)oc2cc(OCCN(Cc3ccccc3)Cc3cn(CCOCCOCCOc4ccc(-c5oc6ccccc6c(=O)c5OCc5ccccc5)cc4)nn3)ccc12`, the pEC50 is 6.01 in series [1], 6.81 in series [2] and 7.16 in series [3].
The like results for `OCCOCCn1cc(CN(Cc2ccccc2)Cc2cn(CCOCCO)nn2)nn1` were, in that order, under 6.00, under 6.00 and under 6.00.
In the same order, the values of `O=c1cc(-c2ccccc2)oc2cc(OCCN(Cc3ccccc3)Cc3cn(CCOc4ccc5c(=O)cc(-c6ccccc6)oc5c4)nn3)ccc12` are 6.05, 6.72 and 6.55.
In the same order, the values of `O=c1cc(-c2ccccc2)oc2cc(OCCOCCn3cc(COCCOc4ccc5c(=O)cc(-c6ccccc6)oc5c4)nn3)ccc12` are under 6.00, 6.71 and 6.51.
For `O=c1cc(-c2ccccc2)oc2cc(OCCOCCOCCn3cc(COCCOc4ccc5c(=O)cc(-c6ccccc6)oc5c4)nn3)ccc12`, the pEC50 is 6.03 in series [1], 6.84 in series [2] and 7.23 in series [3].
As for `Cc1ccc2oc(-c3ccc(OCCOCCOCCn4cc(COCCOc5ccc6c(=O)cc(-c7ccccc7)oc6c5)nn4)cc3)cc(=O)c2c1`, the pEC50 in series [1] was 6.11; in series [2], 7.05; in series [3], 6.84.
In the same order, the values of `Cc1ccc2oc(-c3ccc(OCCCCc4cn(CCOCCOCCOc5ccc(-c6oc7ccccc7c(=O)c6OCc6ccccc6)cc5)nn4)cc3)cc(=O)c2c1` are 6.37, 7.62 and 7.70.
For the compound `Cc1ccc2oc(-c3ccc(OCCCCc4cn(CCN(CCOc5ccc6c(=O)cc(-c7ccccc7)oc6c5)Cc5ccccc5)nn4)cc3)cc(=O)c2c1`, the pEC50 was under 6.00 in series [1], 6.27 in series [2] and 6.43 in series [3].
Consider `Cc1ccc2oc(-c3ccc(OCCOCCOCCn4cc(CCCCOc5ccc6c(=O)cc(-c7ccccc7)oc6c5)nn4)cc3)cc(=O)c2c1`, for which the pEC50 in series [1] was 6.70; in series [2] it was 7.48; in series [3] it was 7.34.
